Experimental data taken from the METLIN SMRT retention time set (Domingo-Almenara et al. 2019).

Assay: gradient 5% acetonitrile 3 min, to 50% in 2 min, to 85% in 15 min, held 3 min, 100 µL/min
Conditions: column: Zorbax Extend-C18 2.1 x 50 mm; eluents: water / acetonitrile, 0.1% formic acid
Outline: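 Values are retention times taken from adduct peaks that software picked and an analyst inspected. The pure standards were run as mixtures of ~100 molecules on HPLC linked to a quadrupole time-of-flight mass spectrometer, in positive and negative ionization mode. A Zorbax Extend-C18 column (2.1 × 50 mm, 1.8 μm) was used at 100 μL/min with water and acetonitrile, each including 0.1% formic acid.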

RP-LC retention time [s]	Structure (SMILES)
758	Cc1ccccc1NC(=O)COc1cccc2c(=O)n(C)ccc12
877	CN1c2cc(C(=O)N3CCN(c4ccccc4F)CC3)ccc2C(=O)N2CCCCC21 (stereo not drawn)
1090	C[C@@H](Oc1ccc(S(C)(=O)=O)cc1C(=O)N1CCN(c2ncc(C(F)(F)F)cc2F)CC1)C(F)(F)F
761	CCOc1ccc(Cl)cc1S(=O)(=O)N1CCC(C(=O)NCCCOC)CC1
597	CC(C)CCC(=O)N1CCN(c2nc3c(s2)CN(C)CC3)CC1
596	O=C(NCCSc1ncc(-c2ccc(F)cc2)[nH]1)c1ccc(Br)o1
923	CCc1ccc(NC(=O)C2CCCN(S(=O)(=O)c3c[nH]c(C(=O)N4CCCCCC4)c3)C2)cc1 (stereo not drawn)
1240	CC(C)CN(CC(C)C)c1nc(-c2ccc(C(C)(C)C)cc2)nc2ccccc12
700	COC(=O)c1ccc(NC(=O)C2CC(=O)N(c3ccc4c(c3)CCN4C(C)=O)C2)cc1 (stereo not drawn)
644	c1ccc(-c2noc(C3CCN(Cc4ccco4)C3)n2)cc1 (stereo not drawn)
758	COc1ccc(C2C(C(=O)NCc3ccco3)c3cc(OC)c(OC)cc3C(=O)N2C)cc1 (stereo not drawn)
640	Cc1ccc(Nc2nc(C)cc3nn(CC(=O)NC4CCCC4)c(=O)n23)cc1
872	COc1ccc(CNC(=O)C2(C)CCN(C(=O)Nc3ccc(F)c(Cl)c3)CC2)cc1
790	O=C(Cn1nc(N2CCOCC2)c2ccccc2c1=O)Nc1ccccc1F
954	Brc1cncc(-c2nc(-c3cccc(-c4ccn[nH]4)c3)no2)c1
1140	COc1ccc(-c2noc(-c3ccc(NC(=O)c4cccs4)cc3)n2)cc1
541	CNC(=O)C(=O)NCC1CCN(S(C)(=O)=O)CC1
688	COc1ccc(OC)c(CNC(=O)C2CCN(c3cncnc3N3CCCCC3)CC2)c1
601	Cc1cc(C)n(-c2ccnc(N3CCC(C(=O)NCCN4CCCCC4)CC3)n2)n1
803	Cc1ccccc1-c1noc(-c2cccnc2N2CCN(Cc3ccccc3)CC2)n1
632	CCC(C)NC(=O)CC1Sc2ncccc2N(C)C1=O (stereo not drawn)
740	COc1ccccc1C(=O)Nc1c2c(nn1C(C)(C)C)CS(=O)(=O)C2

RP-LC retention time [s]	Structure (SMILES)
918	Cc1ccc(N2CCC(NC(=O)c3ccc(F)c(F)c3)C2=O)cc1C (stereo not drawn)
900	Cc1cc(N2CCC(NC(=O)Nc3ccc(C)c(F)c3)C2=O)ccc1F (stereo not drawn)
729	CCn1c(C)c(CN2CCC(C(=O)N3CCN(c4ccccc4F)CC3)CC2)c2ccccc21
631	O=C(Cc1ccsc1)N1C[C@H]2C[C@H](C1)[C@H]1CCCC(=O)N1C2
937	Cc1cc(OCC(=O)N2CCCC2)nc(-c2ccc(Cl)cc2)n1
816	COc1ccc(-c2noc(C3CCCN3C(=O)C3CC3)n2)cc1 (stereo not drawn)
954	COC(=O)c1ccc(N2C=C(C#N)S(=O)(=O)c3ccc(Cl)cc32)cc1
1340	Cc1ccccc1-c1nc(C2CCN(S(=O)(=O)c3ccc(C(C)C)cc3)CC2)no1
832	c1ccc(CNc2cc(-n3cccn3)ncn2)cc1
776	CCc1ccccc1NC(=O)CSc1nnc2ccc(C(=O)Nc3cccc(F)c3)cn12
601	Cc1ccc(C)c(N2C(=O)CC(N3CCC(C(N)=O)CC3)C2=O)c1 (stereo not drawn)
922	CCCN(CC1CCOC1)C(=O)Nc1cccc(C(F)(F)F)c1 (stereo not drawn)
722	Cc1ccc2c(Nc3cccc(C(C)C)c3)c(C(=O)N3CCCC(C)C3)cnc2n1 (stereo not drawn)
1190	CC(C)CC(=O)NCCC1CCN(C(=O)Nc2cc(F)ccc2F)CC1
756	COc1ccc(CCC(=O)Nc2cc(-c3cccnc3)no2)cc1
807	COc1ccc(N2CC(C(=O)N3CCc4cc(-c5ccno5)ccc43)CC2=O)cc1 (stereo not drawn)
654	Cn1ccc2cc(S(=O)(=O)N3CCCC(C(=O)NCCN4CCCCC4)C3)ccc21 (stereo not drawn)
988	CCS(=O)(=O)c1ccc2c(c1)N(Cc1nc(-c3ccc(Br)cc3)no1)C(=O)CO2
823	CCOc1ccc(CC(=O)N2CCN(S(=O)(=O)c3cc4c5c(c3)CCC(=O)N5CCC4)CC2)cc1
698	O=C(NC(Cc1ccccc1)C(=O)N1CCN(c2ccccn2)CC1)c1cccc(Cl)c1 (stereo not drawn)
601	CCN(CC)C(=O)c1cnc2nc(C)ccc2c1Nc1ccc2c(c1)OCCO2
812	COC(=O)c1cc(OCC(=O)Nc2ccc(OC)c(Cl)c2)c2ccccc2n1

RP-LC retention time [s]	Structure (SMILES)
930	N#Cc1cccc(NC(=O)N2CCCC2c2nc(-c3ccc(F)cc3F)no2)c1 (stereo not drawn)
746	COc1ccc(OC)c(NC(=O)C2(C)Oc3cccnc3NC2=O)c1 (stereo not drawn)
849	CCN(CC)S(=O)(=O)c1ccc2c(c1)CC(C(=O)N1CCC(C)CC1)N2C(C)=O (stereo not drawn)
733	O=C(Cc1nnc(-c2ccc3ncccc3c2)o1)NCCc1ccc(Cl)cc1
654	O=C(c1ncccn1)N1C[C@@H](COCC2CC2)[C@H](c2ccncc2)C1
916	O=C(Nc1ccccc1F)C1CCN(S(=O)(=O)c2cc(C(=O)N3CCCCCC3)cs2)CC1
721	CCOC(=O)N1CCN(S(=O)(=O)c2ccc(C(=O)Nc3cccc(C)n3)cc2)CC1
622	O=C(NC1CC1)C1CCCN(c2ncnc3c2nc2n3CCCCC2)C1 (stereo not drawn)
808	CCc1ccc(CNC(=O)c2csc(C(=O)NC)n2)cc1
866	O=C1CCCN1CN(C(=O)c1ccccc1F)c1nc2ccccc2s1
576	O=C(C1CCCN(c2ccc(-c3ccccc3)nn2)C1)N1CCN(c2ccccn2)CC1 (stereo not drawn)
651	O=C(CS(=O)(=O)c1c[nH]c2ccccc12)Nc1ccc2c(c1)OCCO2
792	Cc1ccc(C(=O)N2CCCCCCNC(=O)[C@@H]3CCC[C@@H]32)s1
859	COc1ccccc1Nc1c(-c2ccc3c(c2)OCO3)nc2cnccn12
985	CCc1cc(C(=O)NCc2ccc(C)cc2)nc2ccnn12
710	Cc1ccc(-c2nc3cccc(C)n3c2Nc2ccc3c(c2)OCCO3)cc1
1140	Cc1cccc(NC(=O)Nc2nccn(-c3ccc4c(c3)CCC4)c2=O)c1
894	Cc1cccc(N2CCN(C(=O)c3ccnc(N4CCCC4)n3)CC2)c1
871	COc1cc(OC)c(NC(=O)Cn2c(=O)n(-c3cccc(C)c3)c(=O)c3c2cc(C)n3C)cc1Cl
753	O=C(Cn1c(=O)cc(C(=O)N2CCCCC2)c2ccccc21)NC1CCCCC1
796	CCN1c2ccccc2C(=O)NC12CCN(C(=O)NCc1ccc(C)cc1)CC2
889	Cc1sc2ccn(CC(C)C)c(=O)c2c1C(=O)NCc1ccco1

RP-LC retention time [s]	Structure (SMILES)
846	O=C(c1ccc(OCC2CCCN(C(=O)C3CCCC3)C2)cc1)N1CCCC1 (stereo not drawn)
685	CCC(C)NC(=O)NCCc1nc2cccnc2n1Cc1ccccc1 (stereo not drawn)
1090	Fc1ccc(-c2nc(-c3cn(Cc4ccccc4)nn3)no2)cc1
766	CC(=O)Nc1ccc(-n2c(-c3ccc(Cl)cc3)cn3c4c(=O)n(C)c(=O)n(C)c4nc23)cc1
601	OC1(c2ccccn2)CCOC2(CCN(Cc3ccccc3OC(F)(F)F)CC2)C1 (stereo not drawn)
714	Cc1ccc(NC(=O)Cn2ncc3c(c2=O)N(C)C(=O)CS3)c(Br)c1
580	CC1CN2C=NC(N3CCN(C(=O)c4ccccc4)CC3)=CC2=N1 (stereo not drawn)
544	Cc1cc(C(=O)Nc2ccc3nc(N4CCN(C)CC4)sc3c2)on1
975	Cc1ccc(NC(=O)c2cc3c(=O)n(C)c4ccccc4n3n2)cc1F
1080	COc1cccc(-c2ccc(NC(=O)C3=C(C(=O)O)CCC3)c(F)c2)c1
605	O=C(CCc1nnc2c3cc(-c4ccc(F)cc4)nn3ccn12)NCCN1CCCC1
642	Cn1nc(-c2nc(C3CC3)no2)c2c1CCN(C(=O)c1cccnc1)C2
800	COc1c(C)c2c(c(O)c1C/C=C(\C)CCC(=O)O)C(=O)OC2
586	COc1ccc(NC(=O)Nc2cccc(-c3ccc(N4CCOCC4)nn3)c2)cc1OC
585	COCCNC(=O)c1nc(-c2ccnc(N3CCCC3)c2)no1
582	CCCN1CCN(C(=O)C2CCCN(c3nnc(C)c4c(C)n(-c5ccccc5)nc34)C2)CC1 (stereo not drawn)
676	CN(CCCNC(=O)C1CCCN(C(=O)c2cccc(Cl)c2)C1)c1ccccc1 (stereo not drawn)
880	Cc1cccc(CNC(=O)CC2CCN(C(=O)c3[nH]c(C)c(C(=O)OC(C)C)c3C)CC2)c1
1070	Cc1ccc(-n2cc3c(c(C(=O)Nc4ccc5c(c4)OCCO5)c2=O)CC(C)(C)CC3=O)cc1
794	CCC1(c2ccccc2)NC(=O)N(C)C1=O (stereo not drawn)

Structure (SMILES)	RP-LC retention time [s]
Cc1ccc(Nc2cc(N3CCC(C(=O)N4CCC5(CC4)OCCO5)CC3)ncn2)cc1	645
COc1ccc2c(c1)C1(CCN(S(=O)(=O)c3ccc(F)c(C)c3)C1)C(=O)N2 (stereo not drawn)	874
